These are literature values, as cited in US10765633B2, “Formulation comprising liposomes” (Eisai R&D Management Co., Ltd., priority 2018, dated 2020).

The structures appear in SMILES notation.

The test system of this data set is HDL. Particulars: binding of eritoran to HDL.

Regarding `CCCCCC/C=C\CCCCCCCCCC(=O)N[C@H]1[C@H](OC[C@H]2O[C@H](OP(=O)(O)O)[C@H](NC(=O)CC(=O)CCCCCCCCCCC)[C@@H](OCCCCCCCCCC)[C@@H]2O)O[C@H](COC)[C@@H](OP(=O)(O)O)[C@@H]1OCC[C@@H](CCCCCCC)OC` [eritoran, Eritoran], the “effect of binding to HDL on drug activity” value was “time-dependent loss of drug activity”.
